Common to all, as to format: in vivo
The test system of one assay is Pyrenophora teres. In words: Activity against net blotch of barley caused by Pyrenophora teres. As to conditions: barley seedlings "Igri", inoculated 24 h after spraying, 6 days. The protocol:
(§1) The active compounds were prepared separately or jointly as a 10% strength emulsion in a mixture of 70% by weight of cyclohexanone, 20% by weight of Nekanil® LN (Lutensol® AP6, wetting agent having emulsifying and dispersing action based on ethoxylated alkylphenols) and 10% by weight of Wettol® EM (nonionic emulsifier based on ethoxylated castor oil) and diluted with water to the desired concentration.
Leaves of potted barley seedlings of the cultivar “Igri” were sprayed to runoff point with an aqueous preparation of active compound which had been prepared from a stock solution made of 10% of active compound, 85% of cyclohexanone and 5% of emulsifier and were inoculated 24 hours after the spray coating had dried on with an aqueous spore suspension of Pyrenophora teres, the net blotch pathogen. The test plants were then placed in a greenhouse at 20-24° C. and 95-100% relative atmospheric humidity. After 6 days, the extent of the development of the disease was determined visually in % infection of the entire leaf area.

A further assay deals with Puccinia recondita. Description: Curative activity against brown rust of wheat caused by Puccinia recondita. As to conditions: curative spray 24 h after inoculation, wheat seedlings "Kanzler", 7 days. The protocol:
as §1
Leaves of potted wheat seedlings of the cultivar “Kanzler” were dusted with spores of brown rust (Puccinia recondita). The pots were then placed in a chamber with high atmospheric humidity (90 to 95%) at 20-22° C. for 24 hours. During this period, the spores germinated and the germinal tubes penetrated into the leaf tissue. The following day, the infected plants were sprayed to runoff point with an aqueous preparation of active compound which had been prepared from a stock solution made of 10% of active compound, 85% of cyclohexanone and 5% of emulsifier. After the spray coating had dried on, the test plants were cultivated in a greenhouse at 20-22° C. and 65-70% relative atmospheric humidity for 7 days. The extent of the rust fungus development on the leaves was then determined.

In assay [1] the test system is Blumeria graminis forma specialis tritici. In words: Activity against mildew of wheat caused by Blumeria graminis forma specialis tritici. The following applies: wheat seedlings "Kanzler", dusted with spores 24 h after spraying, 7 days. The protocol: as §1
Leaves of potted wheat seedlings of the cultivar “Kanzler” were sprayed to runoff point with an aqueous preparation of active compound which had been prepared from a stock solution made of 10% of active compound, 85% of cyclohexanone and 5% of emulsifier and were dusted 24 hours after the spray coating had dried on with spores of mildew of wheat (Blumeria graminis forma specialis tritici). The test plants were then placed in a greenhouse at 20-24° C. and 60-90% relative atmospheric humidity. After 7 days, the extent of the mildew development was determined visually in % infection of the entire leaf area.

On to `Cc1cccc(F)c1-c1c(Cl)nc2ncnn2c1NC(C)C(C)C` (single isomer, unassigned) [I.-11a], for which the “% infection of the leaves after application of an aqueous preparation comprising . . . ppm of active compound” value (from here on “% infection of the leaves”) with Pyrenophora teres (16 ppm) is recorded as 5%; in the assay with Pyrenophora teres (63 ppm), 0%; in the assay on Pyrenophora teres (250 ppm) it was 0%; in the assay with Puccinia recondita (16 ppm), 80%; in the assay with Puccinia recondita (63 ppm) it was 5%; with Puccinia recondita (250 ppm), 5%. Further, the “% infection of the leaves” value in assay [1] (16 ppm) is recorded as 7%; in assay [1] (63 ppm) it was 7%; in assay [1] (250 ppm) it was 5%.

Consider `Cc1cccc(F)c1-c1c(Cl)nc2ncnn2c1N[C@H](C)C(C)C` (single isomer, unassigned) [I.-11b], for which the “% infection of the leaves” value is given as 15% with Pyrenophora teres (63 ppm); 0% in the assay on Pyrenophora teres (250 ppm); 20% in the assay with Puccinia recondita (63 ppm); 5% in the assay with Puccinia recondita (250 ppm); 30% in assay [1] (63 ppm); 30% in assay [1] (250 ppm).

With `CC[C@@H](C)Nc1c(-c2c(F)cccc2Cl)c(Cl)nc2ncnn12` [I.-1], the “% infection of the leaves” value in the assay with Pyrenophora teres (16 ppm) stood at 50%; in the assay with Pyrenophora teres (63 ppm), 0%; with Puccinia recondita (16 ppm) it was 5%; with Puccinia recondita (63 ppm), 3%; in the assay with Puccinia recondita (250 ppm), 0%.

For the compound `CCC(C)Nc1c(-c2c(C)cccc2F)c(Cl)nc2ncnn12` (stereo not drawn) [I.-10], the “% infection of the leaves” value in the assay with Pyrenophora teres (63 ppm) came to 3%; in the assay on Pyrenophora teres (250 ppm), 3%; with Puccinia recondita (16 ppm), 60%; in the assay with Puccinia recondita (63 ppm), 40%; in the assay with Puccinia recondita (250 ppm) it was 15%; in assay [1] (63 ppm), 60%. Further, the “% infection of the leaves” value in assay [1] (250 ppm) stood at 15%.

For `CC[C@@H](C)Nc1c(-c2c(F)cc(F)cc2F)c(Cl)nc2ncnn12` [I.-13], the “% infection of the leaves” value with Pyrenophora teres (16 ppm) worked out at 20%; with Puccinia recondita (16 ppm), 3%; in the assay on Puccinia recondita (63 ppm) it was 0%; in assay [1] (16 ppm) it was 60%; in assay [1] (63 ppm), 40%.

As to `C[C@@H](Nc1c(-c2c(F)cc(F)cc2F)c(Cl)nc2ncnn12)C(C)(C)C` [I.-15, (R)-5-chloro-7-(3,3-dimethylbut-2-yl)amino-6-(2,4,6-trifluoro-phenyl)-1,2,4-triazolo[1,5-a]pyrimidine], the “% infection of the leaves” value in the assay on Puccinia recondita (16 ppm) was determined as 0%; in the assay on Puccinia recondita (63 ppm), 0%; with Puccinia recondita (250 ppm), 0%; in assay [1] (16 ppm), 7%; in assay [1] (63 ppm), 7%; in assay [1] (250 ppm), 3%.

Turning to `CC[C@@H](C)Nc1c(-c2ccc(F)cc2C)c(Cl)nc2ncnn12` [I.-22], the “% infection of the leaves” value with Pyrenophora teres (16 ppm) is 7%; with Pyrenophora teres (63 ppm), 0%; in the assay with Puccinia recondita (16 ppm), 30%; in the assay with Puccinia recondita (63 ppm) it was 5%; in the assay on Puccinia recondita (250 ppm), 3%; in assay [1] (16 ppm), 5%. For the same compound, the “% infection of the leaves” value in assay [1] (63 ppm) and in assay [1] (250 ppm) was 3% throughout.

Regarding `CCCC[C@@H](C)Nc1c(-c2c(F)cc(F)cc2F)c(Cl)nc2ncnn12` [I.-27], the “% infection of the leaves” value in the assay on Pyrenophora teres (16 ppm) was found to be 3%; with Pyrenophora teres (63 ppm), 0%; in the assay on Pyrenophora teres (250 ppm), 0%; with Puccinia recondita (250 ppm), 40%.

Turning to `COCC(C)Nc1c(-c2c(F)cc(F)cc2F)c(Cl)nc2ncnn12` (stereo not drawn) [I.-32], the “% infection of the leaves” value in the assay with Pyrenophora teres (16 ppm) stood at 5%; in the assay with Pyrenophora teres (63 ppm), 0%; with Pyrenophora teres (250 ppm), 0%; in the assay with Puccinia recondita (63 ppm) it was 70%; in the assay on Puccinia recondita (250 ppm), 15%.

For `CC[C@H](C)Nc1c(-c2c(F)cccc2Cl)c(Cl)nc2ncnn12` [comparison (S)-amine of I.-1], the “% infection of the leaves” value with Pyrenophora teres (16 ppm) is reported as 100%; in the assay with Pyrenophora teres (63 ppm), 20%; in the assay with Puccinia recondita (16 ppm), 60%; in the assay with Puccinia recondita (63 ppm) it was 20%; in the assay with Puccinia recondita (250 ppm), 15%.

On to `C[C@H](Nc1c(-c2c(F)cc(F)cc2F)c(Cl)nc2ncnn12)C(C)(C)C` [comparison (S)-amine of I.-15], for which the “% infection of the leaves” value in the assay on Puccinia recondita (16 ppm) is on record as 100%; in the assay on Puccinia recondita (63 ppm), 100%; in the assay on Puccinia recondita (250 ppm), 100%; in assay [1] (16 ppm) it was 90%; in assay [1] (63 ppm), 80%; in assay [1] (250 ppm), 40%.

With `CCCC[C@H](C)Nc1c(-c2c(F)cc(F)cc2F)c(Cl)nc2ncnn12` [comparison (S)-amine of I.-27], the “% infection of the leaves” value with Pyrenophora teres (16 ppm) was 100%; in the assay with Pyrenophora teres (63 ppm), 90%; in the assay with Pyrenophora teres (250 ppm), 7%; with Puccinia recondita (250 ppm), 100%.

For the compound `COC[C@H](C)Nc1c(-c2c(F)cc(F)cc2F)c(Cl)nc2ncnn12` [comparison (S)-amine of I.-32], the “% infection of the leaves” value with Pyrenophora teres (16 ppm) is listed as 90%; with Pyrenophora teres (63 ppm), 80%; in the assay on Pyrenophora teres (250 ppm), 30%; in the assay on Puccinia recondita (63 ppm) it was 100%; in the assay on Puccinia recondita (250 ppm), 80%.

These data come from US20040110771A1, “7-(r)-aminotriazolopyrimidines, the production thereof and use of the same for combatting phytopathogenic fungi” (priority 2000, published 2004).
